What was measured:
TRAMP-C2 cells = assay: Incidence of MI, AP and PY in TRAMP-C2 cells (H2B-GFP) by fluorescent microscopy; type: cell-based, mouse; conditions: for AP (×10^−3) / MI (×10^−3) / PY (×10^−3): RPMI without phenol red, no FCS
Source text: At each time point, two peripheral and two central ×20 fields of the tumor are captured with a FITC filter and an integrated frame grabber. Only mitotic figures in metaphase-telophase (MI) are included in the mitotic indices to exclude the potential artifact of nuclear membrane distortion. Apoptotic/Pyknotic nuclei are defined as H2B-GFP labeled nuclei with a cross sectional area <30 μm^2. Nuclear karyorrhexis (NK), easily distinguishable by the vesicular nuclear condensation and brightness of H2BGFP, is included within this apoptotic indices.
For example, TRAMP-C2 cells (transfected with H2B-GFP) were plated at 2.08×10^4 cells/cm^2 density in complete RPMI medium (10% of heat-inactivated FCS, 10^−8 M DHT, 5 μg/ml insulin, 6 ng/ml EGF, 100 U/ml penicillin, 100 μg/ml streptomycin, 2 mM L-glutamine) and grown at 37° C. in a humidified 5% CO2 atmosphere overnight. The cells were 3× washed with PBS and medium was replaced for RPMI medium without phenol red and without FCS. One set of cells had no DHT, the other set was incubated in the presence of DHT 10^−8 M overnight. 24 h later, the medium was replaced for medium (RPMI without phenol red, no FCS) containing increasing concentrations of plumbagin in the range 0-1 μM with DHT 10^−8 M or without DHT. 24 h later the incidence of MI, AP, and PY was evaluated by fluorescent microscopy.

tubulin [1] = conditions: Acharya et al., Biochemistry 2008; cited from earlier work
tubulin [2] = conditions: Acharya et al., Biochemistry 2008; cited from earlier work; remark: listed apart in the source
fibrosarcomas = conditions: in vivo; cited from earlier work
hepatoma = conditions: in vivo; cited from earlier work
[3] = type: physicochemical
Protocol: Plumbagin was formulated as an inclusion complex with heptakis(2,6-di-O-methyl)-beta-cyclodextrin. In brief, a super-saturated solution of plumbagin in 0.1M of heptakis(2,6-di-O-methyl)-beta-cyclodextrin was stirred for 72 hours at 25+/−0.5° C. Then the mixture was filtered through a 0.2 µm nylon membrane filter. The concentration of solubilized plumbagin has been determined by UV-VIS spectroscopy (Amax(263 nm and 417 nm)).

[4] = test system: hormone-refractory prostate cancer; conditions: Aziz et al., Cancer Res. 2008; cited from earlier work
[5] = test system: P388 lymphocytic leukemia; conditions: in vivo; cited from earlier work
prostate carcinoma cells = conditions: plumbagin 5 umol/L; cited from earlier work

Compound: C[C@]12CCC(=O)C[C@@H]1CC[C@@H]1[C@@H]2CC[C@]2(C)[C@@H](O)CC[C@@H]12 [DHT, dihydrotestosterone, reference compound]
- AP (×10^−3) (TRAMP-C2 cells; DHT 0.01 μM): 13.8 ×10^−3
- MI (×10^−3) (TRAMP-C2 cells; DHT 0.01 μM): 4.911 ×10^−3
- PY (×10^−3) (TRAMP-C2 cells; DHT 0.01 μM): 0.8681 ×10^−3

Compound: CC1=CC(=O)c2c(O)cccc2C1=O [Plumbagin, 5-hydroxy-2-methylnaphthalene-1,4-dione]
- in vitro tubulin polymerization (tubulin [1]): inhibits in vitro tubulin polymerization
- induction of cell cycle entry / mitosis compared with DHT (TRAMP-C2 cells; 0.6 μM of plumbagin vs DHT at 10^−8 M): much more effectively than DHT at 10^−8 M
- AP (×10^−3) (TRAMP-C2 cells; plumbagin 0.4 μM, 24 h): 8.852 ×10^−3
- MI (×10^−3) (TRAMP-C2 cells; plumbagin 0.4 μM, 24 h): 8.89 ×10^−3
- PY (×10^−3) (TRAMP-C2 cells; plumbagin 0.4 μM, 24 h): 20.495 ×10^−3
- AP (×10^−3) (TRAMP-C2 cells; plumbagin 0.6 μM, 24 h): 9.371 ×10^−3
- MI (×10^−3) (TRAMP-C2 cells; plumbagin 0.6 μM, 24 h): 14.81 ×10^−3
- PY (×10^−3) (TRAMP-C2 cells; plumbagin 0.6 μM, 24 h): 16.76 ×10^−3
- AP (×10^−3) (TRAMP-C2 cells; plumbagin 0.8 μM, 24 h): 16.11 ×10^−3
- MI (×10^−3) (TRAMP-C2 cells; plumbagin 0.8 μM, 24 h): 12.7 ×10^−3
- PY (×10^−3) (TRAMP-C2 cells; plumbagin 0.8 μM, 24 h): 16.73 ×10^−3
- AP (×10^−3) (TRAMP-C2 cells; plumbagin 1 μM, 24 h): 14.22 ×10^−3
- MI (×10^−3) (TRAMP-C2 cells; plumbagin 1 μM, 24 h): 7.285 ×10^−3
- PY (×10^−3) (TRAMP-C2 cells; plumbagin 1 μM, 24 h): 8.244 ×10^−3
- tubulin binding site (tubulin [2]): recognizes the colchicine binding site of tubulin
- ED50 anticancer effect toward fibrosarcomas (fibrosarcomas): 0.75 mg/kg body weight
- effect on hepatoma (hepatoma): induced regression of hepatoma
- K1:1 (phase-solubility diagram analysis) [3]: 485 M⁻¹
- effect on hormone-refractory prostate cancer [4]: inhibited growth and invasion of hormone-refractory prostate cancer
- ED50 anticancer effect toward P388 lymphocytic leukemia [5]: 4 mg/kg body weight
- expression of PKCq, PI3K, AKT, activation of AP-1, NF-κB, Stat3 (prostate carcinoma cells): inhibit expression of multiple molecular targets
